“And” between values parts separate entries of the source, which are not always exact repeats. Equal entries are not always repeated. One block for each compound: values may come before it.
Tested on: 422866-222-R5-J1-PDC spheroid viability
Test: Anticancer human tumor 422866-222-R5-J1-PDC patient-derived pancreatic adenocarcinoma cell line growth inhibition [CLK]
Details: spheroids with HUVEC and MSC; for viability, T/C: stronger effect = lower value
Text: A high-throughput screen of multi-cell type tumor spheroids was designed to identify active combinations of […] and targeted small molecules. Complex spheroids include a stromal component modeled by human endothelial cells (HUVEC) and fibroblasts modeled by human mesenchymal stem cells (MSCs). The concentration ranges selected for each drug and investigational agent were based upon clinically achievable concentrations if the clinical Cmax of the agent was known.
Compounds. The drugs and investigational agents: cirtuvivint (SM08502; NSC835563), CC-671 (NSC850746), vemurafenib (NSC761431), tapotoclax (NSC804041), sotorasib (NSC818433), adagrasib (NSC831453), MRTX-1133 (NSC836407), BAY2416964 (NSC825713), copanlisib (NSC816437), inavolisib (NSC800729), abemaciclib (NSC768073), osimertinib (NSC779217), entinostat (NSC756642), eltanexor (KPT-8602, NSC794443), venetoclax (NSC766270), ceralasertib (NSC777638), bortezomib (NSC756655), olaparib (NSC753686), talazoparib (NSC767125), alisertib (NSC759677), peposertib (NSC802822), gemcitabine (NSC613327), 5-fluorouracil (NSC19893), SN-38 (NSC673596), oxaliplatin (NSC266046), paclitaxel (NSC125973), and doxorubicin (NSC123127), were obtained from the National Cancer Institute (NCI) Developmental Therapeutics Program Chemical Repository. The FDA-approved anticancer drug set is available from the Developmental Therapeutics Program at https://dtp.cancer.gov/organization/dscb/obtaining/available plates.htm. […] The stock solutions were prepared in dimethyl sulfoxide (DMSO, Sigma-Aldrich, St. Louis, MO, cat. D2650), except for the platinum complexes which were prepared in saline (Quality Biological, Gaithersburg, MD, cat. 114-055-101), at 800-fold the tested concentration and stored at -70 degrees C prior to their use. All drugs and investigational agents were tested over a range starting from a high concentration at or near the clinical Cmax and decreasing in half-log increments. If the clinical Cmax for an agent had not been determined, the highest concentration tested was 10 microM.
Cell Culture. All cells were maintained in an incubator at 37 degrees C and 5% CO2 with 95% humidity. The PDC lines were cultured according to standard operating procedures established by the NCI PDMR. Briefly, all PDCs were thawed and cultured in Matrigel-coated flasks prepared with a working solution of 1X Ham's F-12 nutrient mix, without supplementation (Invitrogen, Waltham, MA, cat. 11765054), 100 U/mL penicillin-streptomycin (Invitrogen, cat. 15140122), and 2.5% Matrigel (Corning Inc., Corning, NY, cat. 354248) for the first three passages. The 947758-054-R-J2-PDC line was cultured in 6B/Colon 1A media, which includes advanced DMEM/F-12 (Thermo Fisher Scientific, cat. 12634028), 10 mM HEPES (Thermo Fisher Scientific, cat. 15630080), 1X GlutaMAX supplement (Thermo Fisher Scientific, cat. 35050061), 0.1 mg/mL primocin (InvivoGen, cat. ant-pm-2), 10% defined fetal bovine serum, heat inactivated (HyClone Laboratories Inc., cat. SH30070.03HI), 1.25 mM N-Acetyl-L-cysteine (Sigma-Aldrich, cat. A9165), 10 mM nicotinamide (Sigma-Aldrich, cat. N0636), 1X B-27 supplement (Thermo Fisher Scientific, cat. 17504044), 1X N-2 supplement (Thermo Fisher Scientific, cat. 17502048), and 10 microM Y-27632 dihydrochloride (Tocris Bioscience, cat. 1254). The 876862-298-R-J1-PDC was cultured in 6E media, which includes all 6B/Colon 1A media components plus 50% L-WRN conditioned media (ATCC, cat. CRL-3276), 50 ng/mL recombinant human EGF recombinant protein (hEGF; Thermo Fisher Scientific, cat. PHG0311), 10 ng/mL recombinant human fibroblast growth factor 10 (hGFG-10; PeproTech, cat. 100-26), 1 ng/mL recombinant human fibroblast growth factor 2 (hFGF-2; PeproTech, cat. 100-18B), and 1 µM prostaglandin E2 (PGE2; Tocris, cat. 2296). The 227483-062-R1-J1-PDC line was cultured in Panc media, containing all 6E components except hFGF-2, with the addition of 500 nM SB-431542 (Selleckchem, cat. S1067) and 10 nM gastrin (Tocris, cat. 3006). […]
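Note: spheroids exposed to agents for seven days before readout.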

IC50 (curve of compound): > 10 µM
Compound: CC(=O)O[C@H]1C(=O)[C@@]2(C)[C@H]([C@H](OC(=O)c3ccccc3)[C@]3(O)C[C@H](OC(=O)[C@H](O)[C@@H](NC(=O)c4ccccc4)c4ccccc4)C(C)=C1C3(C)C)[C@]1(OC(C)=O)CO[C@@H]1C[C@@H]2O
viability, T/C (compound 0.0316 µM): 68% and 69.8% | viability, T/C (compound 0.1 µM): 69.3% and 72.6% | viability, T/C (compound 0.316 µM): 63.8% and 66.3% | viability, T/C (compound 1 µM): 68.3% and 75.5% | viability, T/C (compound 3.16 µM): 72.2% and 76% | viability, T/C (compound 10 µM): 85.7% and 81.6%

IC50 (compound alone, run of 08/14/2023): 650 nM [middle of 12 runs]
Compound: CN1CCN(c2cc(C(=O)Nc3cc4cc(-c5cnn(C)c5)ccc4cn3)ccn2)CC1
viability, T/C (compound 1 µM): 25.8% [middle of 12 runs] | viability, T/C (compound 3.16 µM): 11% [middle of 12 runs] | viability, T/C (compound 10 µM): 2.14% [middle of 12 runs]

IC50 (curve of compound): 2.5 µM and 1.71 µM
Compound: COc1ccc([C@@H](O)c2cc(-c3ncnc4cc(N5CCOCC5)ccc34)c(F)cc2Cl)nn1
viability, T/C (compound 0.0316 µM): 88.1% and 94.1% | viability, T/C (compound 0.1 µM): 105% and 99% | viability, T/C (compound 0.316 µM): 80.7% and 76.8% | viability, T/C (compound 1 µM): 66.4% and 61.3% | viability, T/C (compound 3.16 µM): 47.2% and 38.6% | viability, T/C (compound 10 µM): 35.5% and 29.1%

IC50 (curve of compound): 0.215 µM and 0.113 µM
Compound: COc1cccc2c1C(=O)c1c(O)c3c(c(O)c1C2=O)CC(O)(C(=O)CO)CC3OC1CC(N)C(O)C(C)O1 (configuration not stated)
viability, T/C (compound 0.0316 µM): 57.2% and 67.1% | viability, T/C (compound 0.1 µM): 65.7% and 52.3% | viability, T/C (compound 0.316 µM): 44.2% and 30.3% | viability, T/C (compound 1 µM): 32.1% and 27% | viability, T/C (compound 3.16 µM): 28.3% and 26.7% | viability, T/C (compound 10 µM): 30.9% and 26%

Compound: CCCS(=O)(=O)Nc1ccc(F)c(C(=O)c2c[nH]c3ncc(-c4ccc(Cl)cc4)cc23)c1F + CN1CCN(c2cc(C(=O)Nc3cc4cc(-c5cnn(C)c5)ccc4cn3)ccn2)CC1
IC50 (curve of first compound, second compound 0.0316 µM): > 10 µM | IC50 (curve of first compound, second compound 0.1 µM): > 10 µM | IC50 (curve of first compound, second compound 0.316 µM): > 10 µM | IC50 (curve of first compound, second compound 1 µM): < 0.0316 µM | IC50 (curve of first compound, second compound 3.16 µM): < 0.0316 µM | IC50 (curve of first compound, second compound 10 µM): < 0.0316 µM | viability, T/C (second compound 0.0316 µM, first compound 0.0316 µM): 111% | viability, T/C (second compound 0.0316 µM, first compound 0.1 µM): 113% | viability, T/C (second compound 0.0316 µM, first compound 0.316 µM): 136% | viability, T/C (second compound 0.0316 µM, first compound 1 µM): 161% | viability, T/C (second compound 0.0316 µM, first compound 3.16 µM): 179% | viability, T/C (second compound 0.0316 µM, first compound 10 µM): 150% | viability, T/C (second compound 0.1 µM, first compound 0.0316 µM): 108% | viability, T/C (second compound 0.1 µM, first compound 0.1 µM): 124% | viability, T/C (second compound 0.1 µM, first compound 0.316 µM): 137% | viability, T/C (second compound 0.1 µM, first compound 1 µM): 134% | viability, T/C (second compound 0.1 µM, first compound 3.16 µM): 168% | viability, T/C (second compound 0.1 µM, first compound 10 µM): 138% | viability, T/C (second compound 0.316 µM, first compound 0.0316 µM): 95.9% | viability, T/C (second compound 0.316 µM, first compound 0.1 µM): 102% | viability, T/C (second compound 0.316 µM, first compound 0.316 µM): 98% | viability, T/C (second compound 0.316 µM, first compound 1 µM): 109% | viability, T/C (second compound 0.316 µM, first compound 3.16 µM): 133% | viability, T/C (second compound 0.316 µM, first compound 10 µM): 99.5% | viability, T/C (second compound 1 µM, first compound 0.0316 µM): 31.4% | viability, T/C (second compound 1 µM, first compound 0.1 µM): 30.9% | viability, T/C (second compound 1 µM, first compound 0.316 µM): 32% | viability, T/C (second compound 1 µM, first compound 1 µM): 27.8% | viability, T/C (second compound 1 µM, first compound 3.16 µM): 31.4% | viability, T/C (second compound 1 µM, first compound 10 µM): 23.5% | viability, T/C (second compound 3.16 µM, first compound 0.0316 µM): 8.19% | viability, T/C (second compound 3.16 µM, first compound 0.1 µM): 9.62% | viability, T/C (second compound 3.16 µM, first compound 0.316 µM): 11.2% | viability, T/C (second compound 3.16 µM, first compound 1 µM): 12.2% | viability, T/C (second compound 3.16 µM, first compound 3.16 µM): 16.5% | viability, T/C (second compound 3.16 µM, first compound 10 µM): 16.1% | viability, T/C (second compound 10 µM, first compound 0.0316 µM): 1.72% | viability, T/C (second compound 10 µM, first compound 0.1 µM): 2.24% | viability, T/C (second compound 10 µM, first compound 0.316 µM): 2.24% | viability, T/C (second compound 10 µM, first compound 1 µM): 2.75% | viability, T/C (second compound 10 µM, first compound 3.16 µM): 2.94% | viability, T/C (second compound 10 µM, first compound 10 µM): 0.92%
